{
  "source": "patent US20190029987A1",
  "about": "“DIMETHYL FUMARATE (DMF) FOR PREVENTION OR TREATMENT OF GOUT, ACNE, DIABETES, VITILIGO AND/OR PYODERMA GANGRENOSUM” (UNIVERSITAT ZURICH, priority 2016, published 2019)",
  "key": {"NLRP3 inflammasome [1]": {"target": "T1, NLRP3 inflammasome (Homo sapiens, UniProt Q96P20)", "T1 construct": "endogenous in cells", "T1 sequence (Q96P20 whole entry)": "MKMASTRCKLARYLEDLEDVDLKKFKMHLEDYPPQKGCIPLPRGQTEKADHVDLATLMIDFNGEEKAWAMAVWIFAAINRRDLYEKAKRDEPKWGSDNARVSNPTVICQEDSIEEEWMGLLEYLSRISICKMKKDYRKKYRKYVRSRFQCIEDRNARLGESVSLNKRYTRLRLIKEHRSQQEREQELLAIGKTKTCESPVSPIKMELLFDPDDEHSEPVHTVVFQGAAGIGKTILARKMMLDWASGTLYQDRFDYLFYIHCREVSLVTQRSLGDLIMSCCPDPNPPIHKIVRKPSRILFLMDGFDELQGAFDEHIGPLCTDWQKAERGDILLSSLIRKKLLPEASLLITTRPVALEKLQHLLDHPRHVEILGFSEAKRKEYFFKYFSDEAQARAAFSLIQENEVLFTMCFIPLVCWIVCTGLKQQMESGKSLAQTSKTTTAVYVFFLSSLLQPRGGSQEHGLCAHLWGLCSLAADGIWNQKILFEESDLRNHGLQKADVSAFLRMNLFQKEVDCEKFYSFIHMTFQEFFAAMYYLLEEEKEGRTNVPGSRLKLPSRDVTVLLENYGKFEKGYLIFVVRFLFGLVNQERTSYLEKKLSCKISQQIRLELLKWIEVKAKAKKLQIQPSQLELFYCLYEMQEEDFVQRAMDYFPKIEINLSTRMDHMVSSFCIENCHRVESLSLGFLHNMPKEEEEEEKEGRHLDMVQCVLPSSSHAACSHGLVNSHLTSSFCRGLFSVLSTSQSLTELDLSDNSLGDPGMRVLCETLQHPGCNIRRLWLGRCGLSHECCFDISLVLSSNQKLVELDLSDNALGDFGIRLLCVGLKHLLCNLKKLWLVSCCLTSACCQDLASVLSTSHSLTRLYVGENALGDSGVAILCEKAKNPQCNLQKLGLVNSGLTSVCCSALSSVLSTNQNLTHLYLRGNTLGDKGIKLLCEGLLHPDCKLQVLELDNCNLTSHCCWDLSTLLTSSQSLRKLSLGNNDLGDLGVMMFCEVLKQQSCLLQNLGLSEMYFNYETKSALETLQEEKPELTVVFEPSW", "experiment": "Nigericin-induced IL-1β secretion in human PBMCs (ELISA)", "assay_type": "cell-based", "settings": "10 μM 1 h before nigericin (5 μM), 5 h, FIG. 2C", "text": "To determine the effects of Nrf2 activating compounds on inflammasome activation, the inventors treated keratinocytes with different doses of SFN, tBHQ, DMF or 15d-PGJ2 and irradiated the cells with UVB.\nSFN, DMF, 15d-PGJ2, tBHQ, zymosan, ATP, poly(dA:dT), cycloheximide, puromycin, and doxycycline were purchased from Sigma (Munich, Germany), nigericin from Enzo Life Sciences (New York, US-NY), MG132 from Calbiochem (Darmstadt, Germany), and blasticidin from Invivogen (Toulouse, France). Release of IL-1p was determined by ELISA according the instructions of the manufacturer (R&D Systems, Minneapolis, US-MN). MSU crystals were prepared by crystallisation of a supersaturated solution of uric acid under mildly basic conditions. Briefly, uric acid was added to a solution of NaOH, the solution was boiled until the uric acid was dissolved and passed through a filter. NaCl was added and crystallisation was performed at 4° C. Crystals were filtered, then dried using a speedvac, weighted and autoclaved.\n(A) HPKs were treated with the indicated concentrations of the Nrf2 activating compound tBHQ irradiated with UVB 30 min later and harvested after 5 h. ELISA measurements were performed for quantification of IL-1β secretion and Western blots for analysis of expression and activation of the indicated proteins. Specific bands are marked with an asterisk. (B) THP-1 cells were differentiated with PMA (27 nM) for 3 d, primed with upLPS (100 ng/ml) overnight, and 1 h before inflammasome activation (5 μM nigericin, 150 μg/ml MSU) treated with SFN (10 μM), 15-PGJ2 (10 μM) or DMF (50 μM) (15-PG: 15-PGJ2). Cells and supernatants were harvested after 5 h and analysed for inflammasome activation by ELISA measurement of IL-1p and Western blots as indicated. (C) Freshly isolated PBMCs from human blood were primed overnight with upLPS (100 ng/ml) and treated with SFN (10 μM), tBHQ (10 μM), DMF (50 μM) or 15-PGJ2 (10 μM) 1 h before inflammasome activation by nigericin (5 μM). ELISA measurement for secretion of IL-1β as readout for inflammasome activation was performed after 5 h. (D) HPKs or (E) differentiated and primed THP-1 cells were pretreated with cycloheximide (CHX, 30 μg/ml) to block protein synthesis for 1 h before SFN (10 μM) was added to the cells and after an additional hour the inflammasome was activated by (D) irradiation with UVB or (E) treatment with nigericin (5 μM). Cells and supernatants were harvested after (D) 6 h or (E) 3.5 h and analysed for inflammasome activation by Western blot as indicated. (A-E) Representative experiments performed at least three times are shown. Statistics: (A-C) Error bars represent the mean±SD of a representative experiment performed in triplicates. One-way ANOVA was performed. **P≤0.01; ***P≤0.001."}, "NLRP3 inflammasome [2]": {"target": "NLRP3 inflammasome (Mus musculus, UniProt Q8R4B8)", "sequence (Q8R4B8 whole entry)": "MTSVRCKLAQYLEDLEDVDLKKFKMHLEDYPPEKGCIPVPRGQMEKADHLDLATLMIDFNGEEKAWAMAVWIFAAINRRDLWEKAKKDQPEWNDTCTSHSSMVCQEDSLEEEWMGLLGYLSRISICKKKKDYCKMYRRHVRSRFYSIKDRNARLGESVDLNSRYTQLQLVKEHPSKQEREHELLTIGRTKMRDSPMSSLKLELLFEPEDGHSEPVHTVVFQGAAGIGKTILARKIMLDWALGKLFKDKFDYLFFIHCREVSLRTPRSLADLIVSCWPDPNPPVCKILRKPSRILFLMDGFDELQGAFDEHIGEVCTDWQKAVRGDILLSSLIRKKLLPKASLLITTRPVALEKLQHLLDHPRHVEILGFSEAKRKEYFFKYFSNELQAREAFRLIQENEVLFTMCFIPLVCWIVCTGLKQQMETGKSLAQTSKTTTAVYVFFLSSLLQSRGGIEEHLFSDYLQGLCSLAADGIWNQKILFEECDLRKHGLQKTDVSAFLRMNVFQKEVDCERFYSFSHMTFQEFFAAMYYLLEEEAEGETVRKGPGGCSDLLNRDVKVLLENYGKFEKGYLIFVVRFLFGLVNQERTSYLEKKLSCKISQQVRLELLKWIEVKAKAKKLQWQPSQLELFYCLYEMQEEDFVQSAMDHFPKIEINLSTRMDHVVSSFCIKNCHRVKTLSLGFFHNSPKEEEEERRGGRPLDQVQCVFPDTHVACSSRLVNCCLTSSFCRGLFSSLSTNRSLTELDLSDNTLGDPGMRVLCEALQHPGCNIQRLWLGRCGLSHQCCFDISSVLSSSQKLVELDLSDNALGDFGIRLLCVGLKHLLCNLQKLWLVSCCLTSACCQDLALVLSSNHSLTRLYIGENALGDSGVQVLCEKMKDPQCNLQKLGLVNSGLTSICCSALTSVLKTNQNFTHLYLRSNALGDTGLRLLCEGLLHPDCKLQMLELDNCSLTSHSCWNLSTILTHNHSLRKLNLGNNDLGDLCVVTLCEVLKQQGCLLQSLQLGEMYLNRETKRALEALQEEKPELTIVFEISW", "settings": "BMDCs from wt and Nrf2 knockout mice, 10 μM 1 h before 5 μM nigericin, 4.5 h, FIG. 5D,E", "description": "To address this possibility, the inventors treated BMDCs from wild-type and Nrf2 knockout mice with SFN or vehicle (FIG. 5 D, E).\n(D, E) DCs were differentiated from the bone marrow of wt and Nrf2 knockout mice (n=4), primed overnight with upLPS and treated with the solvent DMSO (ctrl) or SFN (10 μM). After 1 h, BMDCs were treated with 5 μM nigericin and harvested 4.5 h later. (D) Western blots for expression and activation of the indicated proteins and (E) ELISA for quantification of secretion of IL-1p. […] IL-1β secretion was determined by ELISA. […] (A-E) Representative experiments performed at least three times are shown. (E) Error bars represent the mean±SD of a representative experiment performed in triplicates."}, "[3]": {"system": "Monosodium urate (MSU) crystal-induced peritonitis", "experiment": "MSU crystal-induced peritonitis mouse model (neutrophils in peritoneal lavage)", "assay_type": "in vivo", "settings": "mice, oral gavage 25 mg/kg in PBS for two days, 6 h post 2 mg MSU crystals, vs control mice, FIG. 3B", "description": "(§1) Monosodium urate (MSU) crystal-induced peritonitis is a mouse model of inflammation and gout, which is dependent on IL-1, IL-1R1, MyD88 and the NLRP3 inflammasome. […] The inventors chose a different way of administration and supplied mice with SFN or DMF by oral gavage to determine a potential anti-inflammatory activity of the Nrf2 activators in vivo (FIG. 3). […] The inventors analysed the cellular infiltrate in the peritoneum 6 h post injection of MSU crystals.\nMice were challenged with 2 mg of MSU crystals for 6 hours as previously described (Chen et a Olin Invest 2006. 116: 2262-2271).\nMice treated by gavage with (A, B, C) SFN (25 mg/kg) in PBS or (D, E, F) DMF (20 mg/kg) in H2O containing 0.08% methocel and 10% DMSO, vehicle-treated mice served as control. Regime for (A) SFN or (D) DMF treatment. Peritonitis was induced by peritoneal injection of 2 mg MSU crystals, (B, E) After 6 h the number of neutrophils of the peritoneal lavage was determined by flow cytornetry. […] Statistics: Student's t-test. (B, C) n≥3, (E, F) n=7. *P≤0.05; **P≤0.01"}, "[4]": {"system": "Nrf2 target genes Gstp1, Nqo1 and Srxn1", "experiment": "Nrf2 target gene expression in liver of treated mice (qRT-PCR)", "assay_type": "in vivo, mouse", "settings": "oral gavage 25 mg/kg, FIG. 3C", "description": "as §1\nqRT-PCR was performed with the LightCycler 480 SYBR Green Master or the FastStart Universal SYBR Green Master (both Roche, Rotkreuz, Switzerland) using total cellular RNA. Specific primer pairs (Supplementary Table 2) were designed to generate an approximately 150 bp fragment flanking an intron-exon border of the corresponding gene. […]\nMice treated by gavage with (A, B, C) SFN (25 mg/kg) in PBS or (D, E, F) DMF (20 mg/kg) in H2O containing 0.08% methocel and 10% DMSO, vehicle-treated mice served as control. […] Peritonitis was induced by peritoneal injection of 2 mg MSU crystals, (B, E) After 6 h the number of neutrophils of the peritoneal lavage was determined by flow cytornetry. (C, F) At the same time, the liver was isolated and analysed for the expression of the Nrf2 target genes Gstp1, Nqo1 and Srxn1 by qRT-PCR. […]"}, "[5]": {"target": "caspase-1 / Rbx1 interaction (Homo sapiens, UniProt P29466)", "sequence (P29466 120-404)": "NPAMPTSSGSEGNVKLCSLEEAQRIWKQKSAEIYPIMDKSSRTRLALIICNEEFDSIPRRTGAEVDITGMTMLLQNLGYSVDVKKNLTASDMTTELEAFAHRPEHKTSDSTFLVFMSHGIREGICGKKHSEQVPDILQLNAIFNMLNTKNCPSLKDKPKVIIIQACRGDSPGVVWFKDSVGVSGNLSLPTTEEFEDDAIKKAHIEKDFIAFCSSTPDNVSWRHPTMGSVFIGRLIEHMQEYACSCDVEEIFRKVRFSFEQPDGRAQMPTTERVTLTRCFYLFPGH", "settings": "HPKs, 50 μM, harvested 1 h later, FIG. 5C", "description": "To address this point, the inventors performed co-immunoprecipitation (co-IP) experiments with an antibody for caspase-1 and lysates of HPKs. […] In addition, the inventors overexpressed a FLAG-tagged version of caspase-1 in HPKs and precipitated the protease with an ANTI-FLAG M2 Affinity Gel (FIG. 5B).\nCo-immunoprecipitation (co-IP) was performed with lysates of HPKs as described (Sollberger et al., J Immunol 2012. 188: 1992-2000). Briefly, HPKs were grown in 10 cm dishes, transfected with siRNA (scr or siRNA targeting Rbx1), and propagated to 80% confluency (3 days), Four dishes were harvested in 150 μl co-IP buffer with complete proteinase inhibitor (Roche, Rotkreuz, Switzerland), respectively. After treatment in a douncer, the lysates were centrifuged (20 min, 17 000×g). The supernatant was diluted 1: 1 with co-IP buffer and incubated with 20 μg antibody (caspase-1 or HA). After centrifugation, 150 μl (50 mg/ml) protein A Sepharose (GE Healthcare, Little Chalfront, UK) was added. After 90 min, the beads were washed four times with co-IP buffer and resuspended in 100 μl 2×loading SDS buffer. Alternatively, co-immunoprecipitation was performed using an ANTI-FLAG® M2 Affinity Gel (Sigma). HPKs were grown in 10 cm dishes and transduced with lentiviral constructs encoding FLAG-tagged caspase-1 or GFP as described above. […]"}, "ASC": {"system": "ASC", "settings": "THP1, 10 μM, nigericin 5 μM for 2.5 h, FIG. 5F", "description": "In order to analyse, at which level SFN blocks inflammasome activation, the inventors determined the formation of ASC specks in SFN-treated and inflammasome activated THP1 cells (FIG. 5F). Formation of ASC specks is an upstream event of inflammasome activation.\nASC specks were analysed as described (Nara et al., Nat Immunol 2013. 14: 1247-1255),\n(F) THP1 cells (3 d differentiated with TPA, overnight primed with LPS) were stimulated with SFN (10 μM) or the solvent DMSO and mock-treated or with nigericin (5 μM) for 2.5 h. Lysates were harvested in Triton buffer and analysed for soluble and insoluble (indicating speck formation) ASC or in DSS-containing buffer for detection of ASC monomers, dimers and oligomers by Western blotting. IL-1β secretion was determined by ELISA."}},
  "data": [
    {"compound": "CCCCCC=CC=C1C(=O)C=CC1CC=CCCCC(=O)O", "note": "[15d-PGJ2, 15-deoxy-D-prostaglandin J2]", "values": [
      {"measurement": "IL-1β secretion", "setting": "NLRP3 inflammasome [1]", "result": "inhibited IL-1β secretion"}
    ]},
    {"compound": "C[S+]([O-])CCCCN=C=S", "note": "(stereo not shown) [SFN, sulforaphane]", "values": [
      {"measurement": "secretion of IL-1β", "setting": "NLRP3 inflammasome [2]", "result": "completely abolished secretion of the cytokine independently of Nrf2 expression"},
      {"measurement": "IL-1β secretion", "setting": "NLRP3 inflammasome [1]", "result": "inhibited IL-1β secretion"},
      {"measurement": "number of neutrophils in the peritoneum", "setting": "[3]", "result": "significantly reduced"},
      {"measurement": "expression of Nrf2 target genes in the liver", "setting": "[4]", "result": "increased mRNA expression"},
      {"measurement": "interaction between caspase-1 and Rbx1 (co-IP)", "setting": "[5]", "result": "did not prevent the interaction between caspase-1 and Rbx1"},
      {"measurement": "ASC speck formation / oligomerization", "setting": "ASC", "result": "prevented oligomerization of the adaptor protein"}
    ]}
  ]
}
